# Reference: patent US4921871A, “Enolamides, pharmaceutical compositions and methods of use thereof for treating inflammation” (Warner-Lambert Company, priority 1987, dated 1990)
# Tests used:
# [1] = target: T1, human leukocyte 5-lipoxygenase (Homo sapiens, UniProt P09917); assay: 5-Lipoxygenase assay in human leukocytes, formation of 5-HETE (5LOA; 5LOA1 or 5LOA2 not specified); type: cell-based
# T1 construct: endogenous in cells; host or cells: leukocytes from fresh human blood
# T1 sequence (P09917 1-674): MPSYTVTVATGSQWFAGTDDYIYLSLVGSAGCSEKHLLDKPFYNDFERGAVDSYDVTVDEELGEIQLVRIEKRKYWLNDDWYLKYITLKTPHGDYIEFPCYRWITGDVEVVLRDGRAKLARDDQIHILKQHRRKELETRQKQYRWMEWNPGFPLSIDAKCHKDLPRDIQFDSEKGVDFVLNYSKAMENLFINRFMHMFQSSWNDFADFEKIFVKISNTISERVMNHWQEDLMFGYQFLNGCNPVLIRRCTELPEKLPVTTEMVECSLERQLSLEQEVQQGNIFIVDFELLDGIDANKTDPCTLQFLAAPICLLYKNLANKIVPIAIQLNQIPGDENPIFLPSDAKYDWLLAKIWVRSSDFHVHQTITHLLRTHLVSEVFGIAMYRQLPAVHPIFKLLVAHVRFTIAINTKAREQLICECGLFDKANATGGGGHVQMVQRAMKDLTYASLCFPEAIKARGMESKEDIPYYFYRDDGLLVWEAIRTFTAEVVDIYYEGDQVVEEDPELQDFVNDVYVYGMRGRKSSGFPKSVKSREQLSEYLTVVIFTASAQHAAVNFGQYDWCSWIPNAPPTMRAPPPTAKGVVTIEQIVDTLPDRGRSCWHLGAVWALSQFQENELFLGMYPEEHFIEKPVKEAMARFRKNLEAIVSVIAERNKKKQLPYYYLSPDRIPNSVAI
# Excerpt: To Evaluate the Effect of Each Compounds as a 5-Lipoxygenase Inhibitor in Comparison to Standard Reference Agents in Human Leukocytes (5LOAl)
# The purpose of this assay is to evaluate the activity of each compound as an inhibitor of human leukocyte 5-lipoxygenase.
# Arachidonic acid and calcium ionophore A23l87 are obtained from Sigma (St. Louis, Mo.). Silica gel plates, GF are obtained from Analtech (Newark, Del.). Arachidonic acid, (1-^14 C) and 5-HETE (^3 H), 5 (S)-hydroxy-6-trans, 8,11,14-cis eicosatetraenoic acid, are obtained from New England Nuclear (Boston, Mass.). Six percent Dextran-70 in 0.9% NaCl is obtained from Cutter Labs (Berkeley, Calif.).
# Fresh blood from normal adult men who had not received any drugs for at least the previous five days is obtained by the Community Research Clinic (WL/PD) using venipuncture and collected into heparinized vacuotainer tubes. To every 100 ml of pooled blood is added 25 ml of dextran solution (6% dextran -70 in 0.9% sodium chloride containing 3% dextrose) and this is mixed gently in a plastic cylinder. The mixture is left to stand at room temperature for at least 90 minutes. The upper layer which is rich in leukocytes and platelets is then carefully decanted into 50 ml plastic tubes and centrifuged at about 100×g for eight minutes in an IEC centrifuge and rotor number 269 (about 600 rpm). The supernatant fluid is discarded and the pellet is resuspended in 10 ml of 0.87% ammonium chloride for exactly two minutes. This procedure is to lyse completely contaminating red blood cells. Leukocytes are then separated by centrifugation for ten minutes. The pellet is washed three times by suspension in 20 ml PBS (sodium chloride, 7.1 g; Na2 HPO4, 1.15 g; KH2 PO4, 0.2 g, and KCl, 0.2 g/L) and centrifuged as before. The final pellet is suspended in PBS containing 0.87 mM CaCl2. Viability of the cells is then checked using trypan blue exclusion method and is found to be over 90%.
# Leukocyte cells in suspension (0.98 ml) are incubated with or without test compounds for five minutes at 37° C. in a shaking water bath. At this time a 17 μl mixture is prepared per 1 ml of cell suspension: 100 mM arachidonic acid, 1 μl, 0.05 μCi ^14 C-arachidonic acid in 5 .rho.l; 1 mM calcium ionophore A23187, 10 μl (1). This mixture is added and the incubation continued for five minutes. The reaction is stopped by adding four volumes of absolute ethanol and the mixture is kept in ice for 30 minutes. The floculated precipitate is separated by centrifugation at about 37,000×g for 20 minutes (Beckman Instruments rotor number 40). The alcohol extract is taken to dryness under a stream of nitrogen and the residue is dissolved in 100-200 μl absolute ethanol. At the time any turbidity is removed by centrifugation. An aliquot (25-50 μl) is applied onto 20×20 cm silica gel TLC plate and developed using the following solvent system: diethyl ether, petroleum ether (2040° C.), acetic acid (50:50: 1 v/v). Zones of 1 cm apart are scraped from the TLC plate and transferred to mini-vials. Methanol (0.5 ml) is added to dissolve the radioactivity adsorbed to the silica gel and scintillation fluid (H.P., Beckman), 5 ml is then added and vials are counted in a liquid scintillation counter. A sample of ^3 H-5-HETE is applied and used for the identification of the formed 5-HETE.
# Total radioactivity in the test as well as the control samples are normalized and the amount of 5-HETE present is calculated accordingly.
# IC50 values are defined as the concentrations of test agents which caused a 50% inhibition of the formation of 5-HETE as compared to control and are determined by inspection of the concentration-response curves.
# The formation of 5-HETE in human leukocytes is considered a measure of 5-lipoxygenase activity. The protocol is described in the following.
# Fresh heparinized or EDTA treated human blood is mixed with 6% dextran-3% dextrose in isotonic saline in the ratio 0.25 ml dextran solution per 1.0 ml blood. […]
# [2] = system: Human Leukocyte Lipoxygenase; assay: Human Leukocyte Lipoxygenase Assay (LDA-H); type: biochemical
# Procedure: Whole blood is collected from normal volunteers and spun in a refrigerated centrifuge for four minutes at 1°-6° C. at 3800 g. The buffy coat is manually separated and washed twice with chilled 0.83% NH4 Cl and centrifuged at 1000 RPM for ten minutes at 4° C. The white cell is suspended in culture media-EMEM supplemented with 6% Agamma human serum, tricine buffer, and neomycin and recentrifuged at 1000 g to yield a pellet containing the leukocytes used for the preparation of the acetone pentane powder.
# The acetone-pentane powder is prepared utilizing a modification of the procedure reported for human platelet lipoxygenase. See Siegel, et al, Arachidonate Metabolism via Lipoxygenase and 12-L-hydro-peroxy-5 Eicosatetraenoic Acid Peroxidase Sensitive to Antiinflammatory Drugs, Proc. Natl. Acad. Sci., U.S.A. 77:308, 1980 and D. P. Wallach and V. R. Brown, A Novel Preparation of Human Platlet Lipoxygenase, Biochem. Biophys. Acta. 663:361, 1981. Buffy coat prepared above is resuspended in 5-7 volumes of cold 0.1M Tris buffer, pH 7.4 containing 0.154M NaCl. The suspension is centrifuged at 13,300 g for ten minutes at 4° C. The resultant pellet is retained, resuspended in five volumes of cold acetone, recentrifuged at 13,300 g and resuspended in five volumes of cold pentane. The pentane suspension is centrifuged for ten minutes at 13,300 g to give a pellet which is dried in the cold under vacuum with periodic pulverization. The dry powder is stable for several weeks when stored at -80° C.
# Enzyme stock solution is prepared in the following manner. About 15 mg of the acetone-pentane powder is suspended in 4 ml of cold tris buffer (0.1M, pH 7.4), allowed to stand for five minutes, and homogenized thoroughly. The homogenate is sonicated three times for 15 seconds each time, diluted to 7 ml with cold tris buffer (0.1M, pH 7.4), and centrifuged at 4° C. for 60 minutes at 13,300 g. The supernatent is retained and diluted to a total of 10 ml with cold tris buffer (0.1M, pH 7.4) to give the stock enzyme solution. Additional dilutions of 2-50 fold are done as necessary to locate optimal enzyme reaction rate in the assay described below.
# Substrate solution is prepared at 100 μM or 1.0 μM concentrations of arachidonic acid or linoleic acid in 0.1M tris buffer, pH 9.0 containing 20% ethanol.
# The enzyme reaction is followed spectrophotometrically by the appearance of a conjugated diene product at 234 nm. The reaction is monitored at 24° C. using a Gilford Model 2600 spectrophotometer. […] The effects of inhibitors on the reaction are compared with control reactions run under indentical conditions. Routinely, each compounds of the present invention is incubated with the enzyme for five minutes prior to addition of substrate to initiate the reaction. Inhibition expressed as IC50 as molar concentration of the compound required to reduce reaction rate to 50% control.
structure (smiles),measurement,setting,value
O=C(Nc1ccc(CCc2ccc(C(F)(F)F)cc2)cc1)C1CS(=O)(=O)c2ccccc2C1=O (centres unmarked) [Example 44],"5LOA, % Inhibition",[1]; 1.00 E -5 M,+19.6%
same,"5LOA, % Inhibition",[1]; 2.00 E -5 M,+5.8%
same,"5LOA, % Inhibition",[1]; 4.00 E -5 M,30.0%
same,"LDAH, % Inhibition",[2]; 2.50 E -5 M,0.0%
"O=C(Nc1ccc(CCc2ccc3ccccc3c2)cc1)C1=C(O)c2ccccc2S(=O)(=O)C1 [Example 51, 4-Hydroxy-N-[4-[2-(2-naphthalenyl)ethyl]phenyl]-2H-1-benzothiopyran-3-carboxamide, 1,1-dioxide]","LDAH, % Inhibition",[2]; 2.50 E -5 M,0.0%
"CCCCCCc1ccc(NC(=O)C2CS(=O)(=O)c3ccccc3C2=O)cc1 (centres unmarked) [Example 58, N-(4-Hexylphenyl)-3,4-dihydro-4-oxo-2H-1-benzothiopyran-3-carboxamide, 1-1-dioxide]","LDAH, % Inhibition",[2]; 8.00 E -5 M,0.0%
"CCCCCCCCc1ccc(NC(=O)C2CS(=O)(=O)c3ccccc3C2=O)cc1 (centres unmarked) [Example 59, 3,4-Dihydro-N-(4-octylphenyl)-4-oxo-2H-1-benzothiopyran-3-carboxamide, 1,1-dioxide]","LDAH, % Inhibition",[2]; 2.50 E -5 M,0.0%
O=C(Nc1ccc(CCc2cccc(O)c2)cc1)C1CS(=O)(=O)c2ccccc2C1=O (centres unmarked) [Example 82],"LDAH, % Inhibition",[2]; 8.00 E -5 M,0.0%
"COc1ccc(CCc2ccc(NC(=O)C3Oc4cc5ccccc5cc4C3=O)cc2)cc1OC (centres unmarked) [Example 101, Naphtho[2,3-b]furan-2-carboxamide, N-[4-[2-(3,4-dimethoxyphenyl)ethyl]phenyl]-2,3-dihydroxy-3-oxo]","LDAH, % Inhibition",[2]; 2.50 E -5 M,0.0%
"COc1ccc(CCc2ccc(NC(=O)C(=O)c3oc4cc(OC)c(OC)cc4c3O)cc2)cc1OC [Example 115, 2-Benzofuranacetamide, N-[4-[2-(3,4-dimethoxyphenyl)ethyl]phenyl]-3-hydroxy-5,6-dimethoxy-α-oxo]","LDAH, % Inhibition",[2]; 8.00 E -5 M,0.0%
"COc1ccc(CCc2ccc(NC(=O)C(=O)C3Oc4cc5ccccc5cc4C3=O)cc2)cc1OC (stereo not drawn) [Example 117, Naptho[2,3-b]furan-2-acetamide, N-[4-[2-(3,4-dimethoxyphenyl)ethyl]phenyl]-2,3-dihydro-α,3dioxo]","LDAH, % Inhibition",[2]; 2.50 E -5 M,0.0%
"CCCCCCCCCCc1ccc(NC(=O)C(=O)c2oc3cc(OC)c(OC)cc3c2O)cc1 [Example 119, 2-Benzofuranacetamide, N-[4-decylphenyl]-3-hydroxy-5,6-dimethoxy-α-oxo]",IC50,"[2]; conjugated diene at 234 nm, pH 9.0, 24 °C, read-out: LDAH, concentration for 50% inhibition (IC)",7.9 nM
"O=C(Nc1ccc(CCc2ccc(O)c(O)c2)cc1)C1Oc2c(n(-c3ccccc3)c3ccc(O)cc23)C1=O (centres unmarked) [Example 163, 2H-Furo[3,2-b]indole-2-carboxamide, N-[4-[2-(3,4-dihydroxyphenyl)ethyl]phenyl]-3,4-dihydro-7-hydroxy-3-oxo-4-phenyl]","LDAH, % Inhibition",[2]; 2.50 E -5 M,0.0%
"COc1ccc(CCc2ccc(NC(=O)C(=O)c3[nH]c4cc(C)c(C)cc4c3O)cc2)cc1OC [Example 175, 1H-Indole-2-acetamide, N-[4-[2-(3,4-dimethoxyphenyl)ethyl]phenyl]-3-hydroxy-5,6-dimethyl-α-oxo]","5LOA, % Inhibition",[1]; 1.00 E -5 M,7.0%
same,"5LOA, % Inhibition",[1]; 2.00 E -5 M,2.0%
same,"5LOA, % Inhibition",[1]; 2.00 E -6 M,8.0%
same,"LDAH, % Inhibition",[2]; 2.50 E -5 M,0.0%
